Data published in patent US20240058268A1, “METHODS OF TREATING SKIN DISORDERS” (priority 2021, published 2024).

Key:
[1] = test system: cell types in skin biopsies (macrophage subsets, B cells, melanocytes, venular cells); assay: Cell type scoring (cell-type gene signature expression scores in biopsies); type: in vivo, human
Source text: Single-Cell Analysis and Cell Marker Definition: Single-cell RNAseq data from Hughes et al. was used to determine the major cell types present in skin biopsies and the associated cell markers. Acne and normal samples from GSE150672 were downloaded and analyzed using the Seurat package. Data were normalized, scaled, and log-transformed. The most variable genes were selected based on their expression and dispersion. To reduce dimensionality, principal component analysis (PCA) was applied. The first eight principal components were used to cluster the cells using the graph-based approach FindClusters function in Seurat, with a resolution parameter of 0.4. Graphical representation of cell clusters was achieved using UMAP. A combination of known markers and differentially expressed genes was used to characterize cell clusters. Major cell type markers retained for scoring analysis included: B cells: MS4A1, CD79A; Fibroblasts: DCN, COL6A2, APOD, CFD, IGFBP5, COL1A2, COL1A1, COL3A1; Keratinocytes: KRT5, KRT1, KRT14, KRT15, S100A2, KRT6A, HOPX, KRT10, DSP; Langerhans cells: CD207; Mast cells: CPA3, IL1RL1, CTSG, TPSAB1, GATA2; Melanocytes: MLANA, MITF, PMEL, DCT; Myeloid cells: CD68, CTSS; Schwann cells: SCN7A; T cells: CD3D, TRBC2, IL7R, PTPRC, CXCR4; Venular cells: SELE, CD93, TM4SF1, A2M, RCAN1; Vascular smooth muscle cells (VSMC): TAGLN, RGS5, MYH11, ACTA2, MYL9.
Macrophage Gene Signatures: Gene markers specific to each class of macrophage were derived from the literature. For M0, M1 and M2 macrophages, the markers described in Newman et al. (Robust enumeration of cell subsets from tissue expression profiles, Nat Methods, 12:453-7, 2015) were used. For SPP1 activated macrophages, the markers from Morse et al. (Proliferating SPP1/MERTK-expressing macrophages in idiopathic pulmonary fibrosis. Eur Respir J., 54:1802441) were used. Final markers were as listed. M0 macrophage: ACP5, BHLHE41, C5AR1, CCDC102B, CCL22, CCL7, COL8A2, CSF1, CXCL3, CXCL5, CYP27A1, DCSTAMP, GPC4, HK3, IGSF6, MARCO, MMP9, NCF2, PLA2G7, PPBP, QPCT, SLAMF8, SLC12A8, TNFSF14, VNN1. M1 macrophage: ACHE, APOBEC3A, APOL3, APOL6, ARRB1, CCL19, CCL5, CCR7, CD38, CD40, CHI3L1, CXCL10, CXCL11, CXCL13, CXCL9, CYP27B1, DHX58, HESX1, IDO1, IFI44L, IL2RA, KIAA0754, KYNU, LAG3, LAMP3, LILRA3, LILRB2, NOD2, PLA1A, PTGIR, RASSF4, RSAD2, SLAMFI, SLC2A6, SOCS1, TLR7, TNFAIP6, TNIP3, TRPM4. M2 macrophage: AIF1, ALOX15, CCL13, CCL14, CCL23, CD209, CD4, CFP, CLEC10A, CLEC4A, CRYBB1, FES, FRMD4A, FZD2, GSTT1, HRH1, HTR2B, MS4A6A, NME8, NPL, P2RY13, PDCD1LG2, RENBP, WNT5B. SPP1 macrophage: MERTK, CD14, SPP1, CD68, LYZ.
Cell Type Scoring: Each cell type gene signature was used to define a cell type average gene expression in each of our clinical study samples, calculated as the average of the log 2 expression values of these markers. Boxplots were used to visualize the distribution of cell type gene expression scores between clinical groups. Statistical significance was assessed using Wilcoxon rank sum test. Graphs were generated using the ggpubr data visualization library.

[2] = test system: acne papule biopsies, gene sets; assay: Gene set enrichment analysis (FGSEA, hallmark and reactome gene sets); type: in vivo, human; conditions: inflammatory response, TNFA signaling via NF-kB, neutrophil degranulation, chemokines and receptors; collagen degradation, extracellular matrix degradation/organization
Method: Functional and network analysis were generated with the Ingenuity Pathway Analysis software (QIAGEN® Inc., qiagenbioinformatics.com/products/ingenuity-pathway-analysis), and with Open Targets (opentargets.org/). IPA was used to identify canonical pathways, diseases and functions, and gene networks related to differentially expressed genes in acne lesions and post-lesional skin after treatment with trifarotene or vehicle. In addition, gene set enrichment analysis was performed with the R package FGSEA (version 1.12.0) using the hallmark and reactome gene sets.

`CC(C)(C)c1cc(-c2cc(-c3ccc(C(=O)O)cc3)ccc2OCCO)ccc1N1CCCC1` [Trifarotene, 3″-tert-Butyl-4′-(2-hydroxy-ethoxy)-4″-pyrrolidin-1-yl-[1,1′,3′,1″ ]terphenyl-4-carboxylic acid] was tested, and the venular cells ([1]; following trifarotene treatment) was “trend toward a decrease”, the “M0, M1 and M2 macrophages” value ([1]; spontaneously resolved vs trifarotene treated biopsies) was “not significantly different” and the increase in melanocytes ([1]; trifarotene treated vs spontaneously resolved acne lesions) was “greater in the trifarotene treated samples”. For the same molecule, the B cell frequencies ([1]; trifarotene treatment vs. spontaneous resolution) was “greater impact in reducing B cell frequencies”, the “frequencies of SPP1+ macrophages” value ([1]; trifarotene treatment vs. spontaneously resolved acne papules, P=0.040) was “significantly reduced” and the “gene set enrichment: inflammatory modules and tissue remodeling gene sets” value [2] was “downregulates”.
